Assay results from patent US8859503B2, “Methods and compositions targeting viral and cellular ITAM motifs, and use of same in identifying compounds with therapeutic activity” (priority 2005, dated 2014).
“Also recorded” adds a separate entry of the source. Ends that are not written are not given here. * marks the point of attachment. Biotin = O=C1N[C@H]2[C@H](CS[C@H]2CCCCC(=O)*)N1

Experiments:
[1] = system: Env-expressing NMuMG cells; assay: Three-dimensional Matrigel cultures of MMTV Env-expressing NMuMG cells (acinar structure morphology/size); format: cell-based, murine
Protocol: NMuMG cells (5×10^3 cells per chamber) were cultured on Matrigel® (BD Biosciences) cushions. Assay medium (DMEM/F12 supplemented with 2% donor horse serum, 10 μg/ml insulin, 1 ng/ml cholera toxin, 100 μg/ml hydrocortisone, 50 U/ml penicillin, and 50 μg/ml streptomycin) containing 2% Matrigel was replaced every 4 days. The structures were analyzed, at a magnification of 20, on a Zeiss Axiovert 200M equipped with PCO SensiCam video camera and Slidebook® software (Intelligent Imaging Innovations). Cell staining was performed with rat anti-human Keratin-18 (Lab Vision), rat anti-human E-cadherin and goat anti-rat IgG-FITC conjugated antibodies (Jackson ImmunoResearch Laboratories), or goat anti-rat IgG-Alexa-555 conjugated antibodies (Molecular Probes). Quantification of structure size was performed using a 10×50-μm grid reticule (Fisher Scientific) and 20-100 structures were counted from each chamber. The inhibitors PP2 and Piceatannol (EMD) were added on day 3 of culture, and pictures were taken on day 6. In apoptosis assays, TNF (R&D Systems) or TRAIL (BIOMOL Research Laboratories, Inc) were added on day 5 of culture, and pictures were taken on day 6. TUNEL assay was performed using a kit from Roche Applied Science (Indianapolis, Ind.).
(§1) NmuMG (wild-type or Env-expressing) or Mm5MT cells (10^4) were incubated on Matrigel (BD Labware) for six days, as described previously. Cells were treated with or without ITAM peptide (10 μM) or the Syk inhibitors piceatannol (1 μg/ml) and SI-31 (100 nM) (EMD). The acinar structures were analyzed and captured, at a magnification of 20×, on a Zeiss Axiovert 200M equipped with PCO SensiCam video camera and Slidebook v4 software (Intelligent Imaging Innovations). Three-dimensional structures >50 μm were considered enlarged. Data shown is based on size of 50 random acini.

Mm5MT cells = assay: Three-dimensional Matrigel cultures of MMTV+ Mm5MT tumor cells; format: cell-based; conditions: for reversion to round 3D phenotype: six days
Protocol: as §1, with “Cells were treated with or without ITAM peptide (10 μM) or the Syk inhibitors piceatannol (1 μg/ml) and SI-31 (100 nM) (EMD).” left out

[2] = Water solubility of the ITAM fragment; format: physicochemical
[3] = system: ITAM-based BCR signaling (tyrosine phosphorylation) in splenic B cells; assay: Western blotting for tyrosine phosphorylation after anti-BCR stimulation; format: cell-based, mouse
Protocol: Splenic B cells (10^7) were pre-incubated with 0-100 μM ITAM peptide for 3 h at 37° C. and then stimulated with anti-BCR antibodies as above for further 5 min. Lysates (20 μg/lane) were run on SDS-PAGE, blotted and detected with anti-phosphotyrosine antibody (4G10-HRP; Upstate Biotech). Molecular weights shown are based on the molecular weight markers.

RBL-2H3 cells = assay: FcεR1-mediated degranulation of RBL-2H3 cells (hexosaminidase activity); format: cell-based; conditions: ITAM peptide 25 μM; anti-DNP IgE 1 μg/ml, DNP-HSA 10 ng/ml
Protocol: The effect of ITAM peptide on mast cell function was evaluated by degranulation induced by FcεR1 cross-linking. RBL-2H3 cells (5×10^4) were incubated overnight with anti-DNP IgE (1 μg/ml). Subsequently, degranulation was induced with DNP-HSA (10 ng/ml, 2 h), in the presence or absence of ITAM peptide (25 μM). Degranulation, as detected by hexosaminidase activity, is depicted as percent of maximal activity obtained from whole cell lysates.

[4] = system: NIH3T3 cells expressing the ITAM-containing MAHB chimera; assay: Soft agar colony formation assay of NIH3T3 cells expressing the ITAM-containing MAHB chimera; format: cell-based, murine
Protocol: NIH3T3 cells expressing the ITAM-containing MAHB chimera (1×10^4) were suspended in 0.3% agar in DMEM containing 10% FBS. Cells from each transduction group were plated in 6-well plates pre-coated with 0.6% agar base in DMEM containing 10% FBS. Cells were fed with fresh top agar (0.3% agar in DMEM with 10% FBS, with or without ITAM peptide) every 5 days. Colonies were counted and measured using a graduated reticule under microscope at 10× magnification on day 21.

mouse splenic B cells = assay: B lymphocyte stimulation and proliferation ([3H] thymidine incorporation); format: cell-based; conditions: 20 μM peptide
Protocol: Proliferation of mouse splenic B cells: cells (5×10^5) were incubated for 48 h in the presence or absence of 20 μM peptide and stimulated with 10 μg/ml anti-BCR antibodies (Jackson ImmunoResearch Laboratories), LPS (Sigma) or anti-CD40 antibodies (BD Pharmingen). [^3H] Thymidine incorporation (1 μCi/well) was measured in the last 4 h of the experiment.

Syk = biological target: T1, Syk (Mus musculus, UniProt P48025); assay: Peptide:Syk binding assay (biotin-peptide pull-down from Bal-17 B cell lysates); conditions: peptide 50 μM; Bal-17 whole cell lysates; n=3
T1 construct: Whole cell lyastes of Bal-17 B cells (3×10^7) were used; endogenous in cells; host or cells: Bal-17 B cells (whole cell lysate)
T1 sequence (P48025 whole entry): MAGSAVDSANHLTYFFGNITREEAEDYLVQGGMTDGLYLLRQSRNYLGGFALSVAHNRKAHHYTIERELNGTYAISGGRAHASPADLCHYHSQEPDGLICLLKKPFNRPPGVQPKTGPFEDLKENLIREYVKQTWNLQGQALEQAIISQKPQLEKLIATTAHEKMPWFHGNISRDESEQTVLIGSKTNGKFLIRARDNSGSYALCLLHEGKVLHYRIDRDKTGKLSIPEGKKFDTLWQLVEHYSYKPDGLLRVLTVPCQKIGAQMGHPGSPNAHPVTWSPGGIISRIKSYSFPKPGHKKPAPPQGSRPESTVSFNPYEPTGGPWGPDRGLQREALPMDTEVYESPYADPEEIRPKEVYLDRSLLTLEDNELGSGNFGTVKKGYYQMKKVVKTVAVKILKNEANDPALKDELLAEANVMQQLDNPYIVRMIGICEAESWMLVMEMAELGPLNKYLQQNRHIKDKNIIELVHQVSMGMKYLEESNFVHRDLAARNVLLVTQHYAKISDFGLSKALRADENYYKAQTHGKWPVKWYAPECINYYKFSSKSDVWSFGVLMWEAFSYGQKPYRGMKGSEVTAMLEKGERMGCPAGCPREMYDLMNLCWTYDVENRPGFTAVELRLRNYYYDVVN
Protocol: Whole cell lyastes of Bal-17 B cells (3×10^7) were used for quantification of ITAM peptide interactions. Equivalent cell lysates were mixed with either biotin-KRPPAVLL (control peptide; SEQ ID No 46) or biotin-KRPPYVLL (ITAM peptide; SEQ ID No 47) in concentration between 10-50 μM. Pull-downs were performed with Immobilized Neutravidin Protein (Pierce), as previously described. The resulting lysate pull-downs were run on SDS-PAGE were detected by Western blotting with rabbit anti-Syk antibody (N-19, Santa Cruz). Donkey anti-rabbit IgG-alkaline phosphatase conjugated antibody was used as a secondary antibody (Jackson ImmunoResearch Laboratories). For development and quantification, an ECF substrate was used followed by a scan using Storm 860 and analysis by ImageQuant 5.2 (all obtained from Amersham Biosciences).

Syk-GFP = biological target: T2, Syk-GFP (Mus musculus, UniProt P48025); assay: Co-localization of dsRed peptide chimeras with Syk-GFP in 293T cells by confocal microscopy; format: cell-based; conditions: transiently transfected human 293T cells
T2 construct: host or cells: Human 293T cells, transient transfection
T2 sequence (P48025 whole entry): as above
From the text: Peptide conjugates were produced by QuikChange XL® kit from Stratagene. The dsRed2-C1 construct (BD Clontech) was modified using the following primers: dsRed.YVLL: 5′-[…]-3′ (SEQ ID No 42); and 5′-[…]-3 (SEQ ID No 43).
dsRed.KRPPYVLL: 5′-[…]-3′ (SEQ ID No 44); and 5′-[…]-3′ (SEQ ID No 45). The Syk-eGFP construct was a provided by Dr. Robert Geahlen (Purdue University).
For laser scanning microscopy a Zeiss LSM510 META laser scanning confocal module on a Zeiss Axiovert 200M inverted microscope was used. Objective used: C-APO 40×/1.2 water DIC. Lasers: 488 nm laser line from Argon laser (30 mW) for eGFP excitation; 543 nm laser line from HeNe laser (1 mW) for dsRed excitation. Analysis was performed on Zeiss LSM510 META v3.2 software.

CC(C)(C)n1nc(-c2ccc(Cl)cc2)c2c(N)ncnc21 [PP2]
morphological changes associated with Env transformation ([1]; Env+ NMuMG 3D cultures, inhibitor 500 ng/ml added on day 3, imaged on day 6): sufficient to block morphological changes associated with Env transformation
phenotypic reversal of transformed phenotype to normal round acini ([1]; Src inhibitor PP2, concentration not printed for this experiment): effective in phenotypic reversal

Cn1cc(C=C2C(=O)Nc3ccc(S(N)(=O)=O)cc32)c2ccccc21 [SI-31, reference compound]
phenotypic reversal of transformed phenotype to normal round acini ([1]; SI-31 100 nM, six days): effective in phenotypic reversal
reversion to round 3D phenotype (Mm5MT cells; SI-31 100 nM): readily apparent

Ac-KRPPYVLL [KRPPYVLL]
water solubility [2]: water-soluble

Ac-KRPPYVLL-OH [ITAM peptide]
phenotypic reversal of transformed phenotype to normal round acini ([1]; ITAM peptide 10 μM, Env-expressing NMuMG on Matrigel six days): as effective in phenotypic reversal as the Src inhibitor PP2 and Syk inhibitors Piceatannol and SI-31
tyrosine phosphorylation associated with ITAM-based BCR signaling ([3]; higher concentrations of the peptide): neither stimulatory nor inhibitory
tyrosine phosphorylation associated with ITAM-based BCR signaling ([3]; relevant peptide concentrations (0-100 μM tested), 3 h pre-incubation, anti-BCR 5 min, data not shown): visibly reduced; also recorded: Inhibition of tyrosine phosphorylation was confirmed
FcεRI-induced degranulation (hexosaminidase activity) (RBL-2H3 cells): significantly inhibited; also recorded: significant reduction (p=0.093)
Mm5MT acini phenotype (Mm5MT cells; 3D cultures on Matrigel six days, treated with ITAM peptide, Src or Syk inhibitors): exhibited a more round phenotype
reversion to round 3D phenotype (Mm5MT cells; ITAM peptide 20 μM (5-20 μM tested)): readily apparent
size and number of colonies formed ([4]; ITAM peptide 0-20 μM added with feeding media, colonies >75 μm scored on day 21): reduction in both size and number of colonies formed
colony formation of ITAM+ fibroblasts ([4]; chronic treatment with ITAM peptide in feeding media): sufficient to reduce colony formation
BCR-induced proliferation ([3H] thymidine incorporation) (mouse splenic B cells; 48 h, 10 μg/ml anti-BCR antibodies): inhibition of BCR-induced proliferation; also recorded: highly significant (p=0.0017)
stimulation of B lymphocytes by LPS (non-ITAM) (mouse splenic B cells; LPS 20 μg/ml, data not shown): no significant effect
stimulation of B lymphocytes through CD40 (non-ITAM) (mouse splenic B cells; anti-CD40 5 μg/ml, data not shown): no significant effect

Biotin-KRPPYVLL
Syk detected in pull-down, over control peptide biotin-KRPPAVLL (Syk): 1.5- to 2 fold

dsRed.KRPPYVLL: dsRed chimera protein with the entire 8 amino acid ITAM fragment (dsRed-KRPPYVLL)
co-localization with Syk-GFP (Syk-GFP): co-localization was still detected

dsRed.YVLL: dsRed chimera protein with 4 amino acids (YVLL) of the ITAM fragment (dsRed-YVLL)
co-localization with Syk-GFP (Syk-GFP): co-localization was readily observed
